Assay results from article PMC11705763, “Tumor-associated antigen prediction using a single-sample gene expression state inference algorithm” (Cell Reports Methods, 2024).

Assays:
HLA-A02:01 = HLA-A02:01 (Homo sapiens, UniProt P04439, D140Y/D185E/D98H/E176V/E277Q/G131W/G231S/I119V/I121R/I166T/I218V/L300P/L318F/N151K/N90K/P208A/P217A/Q86G/Q94H/R138H/R169H/T345S); test: Peptide-MHC tetramer exchange assay (competitive peptide binding, QuickSwitch Quant HLA-A02:01 tetramer); details: percentage of replacement of the exchangeable peptide by the test peptide
[1] = system: CD8+ T cell cultures / PBMCs from healthy donors; test: IFN-gamma ELISpot assay; assay type: cell-based, human; design: Donor1_value / Donor3_value / Donor4_value: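 Spot-forming units per 100000 cells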; details: IFN-gamma ELISpot result; for Donor1_value: healthy donor 1; for Donor2_value: healthy donor 2; for Donor3_value: healthy donor 3; for Donor4_value: healthy donor 4;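 for Donor2 value: Spot-forming units per 100000 cells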
From the text: We experimentally assessed the binding affinity of the 38 peptides through a competitive peptide binding assay (STAR Methods). […] Subsequently, we investigated the immunogenicity of these peptides using an interferon (IFN)-gamma ELISpot assay (STAR Methods). […] These peptides represent promising candidates for further investigation as potential immunotherapy targets. Peripheral blood mononuclear cells (PBMCs) from healthy donors were isolated at Zhongshan Hospital, Fudan University using Lymphoprep (07851, Stemcell) and cultured with ImmunoCult-XF T cell Expansion Medium (10981, Stemcell) supplemented with human recombinant IL-2 (78036, Stemcell). ImmunoCult Human CD3/CD28 T cell Activator (10971, Stemcell) was added to the cell suspension, which was then incubated for 3 days. Subsequent expansion of the cell suspension was carried out every two days as per manufacturer's instructions. The entire process was approved by the Institutional Review Board of Zhongshan Hospital, Fudan University (B2024-412). ELISPOT plates (2110003, […]) were pretreated with PBS before dispensing cell suspensions (nearly 1×10^5 cells) with synthesized peptide (10 μg/mL) into each well. After incubation at 37°C in a CO2 incubator for 20 h, plates were washed and incubated with anti-human IFN-γ followed by Streptavidin-HRP. Staining of Streptavidin-HRP was performed using AEC solution, and the reaction was stopped by rinsing with cold tap water. ELISPOT plates were scanned and counted using an ImmunoSpot plate reader and associated software from Cellular Technologies, Ltd.

Sequence: AMLKNTVPI
- Q1_Replacement_Percentage (HLA-A02:01): 89.9%
- Donor1_value [1]: 0
- Donor2_value [1]: 0
- Donor3_value [1]: 18
- Donor4_value [1]: 0

Sequence: FLAKLNNTV
- Q1_Replacement_Percentage (HLA-A02:01): 88.1%
- Donor1_value [1]: 2
- Donor2_value [1]: 56
- Donor3_value [1]: 18
- Donor4_value [1]: 0

Sequence: FLLLVDAAV
- Q1_Replacement_Percentage (HLA-A02:01): 83.5%
- Donor1_value [1]: 571
- Donor2_value [1]: 34
- Donor3_value [1]: 0
- Donor4_value [1]: 12

Sequence: FLLLVDAAVQ
- Q1_Replacement_Percentage (HLA-A02:01): 29.3%
- Donor1_value [1]: 0
- Donor2_value [1]: 31
- Donor3_value [1]: 16
- Donor4_value [1]: 0

Sequence: FLNEACLFEI
- Q1_Replacement_Percentage (HLA-A02:01): 92%
- Donor1_value [1]: 606
- Donor2_value [1]: 0
- Donor3_value [1]: 7
- Donor4_value [1]: 10

Sequence: FLRFANYCRI
- Q1_Replacement_Percentage (HLA-A02:01): 30%
- Donor1_value [1]: 0
- Donor2_value [1]: 8
- Donor3_value [1]: 8
- Donor4_value [1]: 0

Sequence: FLSTLTTFI
- Q1_Replacement_Percentage (HLA-A02:01): 89.1%
- Donor1_value [1]: 0
- Donor2_value [1]: 41
- Donor3_value [1]: 15
- Donor4_value [1]: 0

Sequence: FLTSGEDAV
- Q1_Replacement_Percentage (HLA-A02:01): 98.3%
- Donor1_value [1]: 494
- Donor2_value [1]: 21
- Donor3_value [1]: 0
- Donor4_value [1]: 0

Sequence: FLWGPRAHSEV
- Q1_Replacement_Percentage (HLA-A02:01): 90.4%
- Donor1_value [1]: 558
- Donor2_value [1]: 0
- Donor3_value [1]: 10
- Donor4_value [1]: 18

Sequence: FLYEVFAQL
- Q1_Replacement_Percentage (HLA-A02:01): 92.7%
- Donor1_value [1]: 654
- Donor2_value [1]: 7
- Donor3_value [1]: 4
- Donor4_value [1]: 0

Sequence: GLAEYLFDKLTL
- Q1_Replacement_Percentage (HLA-A02:01): 89.8%
- Donor1_value [1]: 584
- Donor2_value [1]: 0
- Donor3_value [1]: 9
- Donor4_value [1]: 0

Sequence: GLLMPLLGV
- Q1_Replacement_Percentage (HLA-A02:01): 91.1%
- Donor1_value [1]: 521
- Donor2_value [1]: 32
- Donor3_value [1]: 1
- Donor4_value [1]: 11

Sequence: GLLMPLLGVI
- Q1_Replacement_Percentage (HLA-A02:01): 91.4%
- Donor1_value [1]: 631
- Donor2_value [1]: 10
- Donor3_value [1]: 3
- Donor4_value [1]: 0

Sequence: GLLMPLLGVIFL
- Q1_Replacement_Percentage (HLA-A02:01): 78.9%
- Donor1_value [1]: 4
- Donor2_value [1]: 33
- Donor3_value [1]: 8
- Donor4_value [1]: 0

Sequence: ILFGISLREV
- Q1_Replacement_Percentage (HLA-A02:01): 96.2%
- Donor1_value [1]: 0
- Donor2_value [1]: 24
- Donor3_value [1]: 20
- Donor4_value [1]: 8

Sequence: KLLMPLLGV
- Q1_Replacement_Percentage (HLA-A02:01): 97.9%
- Donor1_value [1]: 384
- Donor2_value [1]: 0
- Donor3_value [1]: 0
- Donor4_value [1]: 13

Sequence: KMKVLEFLAKV
- Q1_Replacement_Percentage (HLA-A02:01): 42.8%
- Donor1_value [1]: 0
- Donor2_value [1]: 2
- Donor3_value [1]: 18
- Donor4_value [1]: 0

Sequence: KVADLVGFLL
- Q1_Replacement_Percentage (HLA-A02:01): 84.3%
- Donor1_value [1]: 570
- Donor2_value [1]: 0
- Donor3_value [1]: 2
- Donor4_value [1]: 0

Sequence: KVLEFLAKL
- Q1_Replacement_Percentage (HLA-A02:01): 88.2%
- Donor1_value [1]: 545
- Donor2_value [1]: 58
- Donor3_value [1]: 12
- Donor4_value [1]: 0

Sequence: KVLEYVIKV
- Q1_Replacement_Percentage (HLA-A02:01): 80.8%
- Donor1_value [1]: 0
- Donor2_value [1]: 23
- Donor3_value [1]: 19
- Donor4_value [1]: 0

Sequence: LLASYNDDDIYL
- Q1_Replacement_Percentage (HLA-A02:01): 98.2%
- Donor1_value [1]: 426
- Donor2_value [1]: 0
- Donor3_value [1]: 3
- Donor4_value [1]: 8

Sequence: LLFGLALIEV
- Donor1_value [1]: 28
- Donor2_value [1]: 42
- Donor3_value [1]: 7
- Donor4_value [1]: 0

Sequence: LLMPLLGVI
- Q1_Replacement_Percentage (HLA-A02:01): 96.3%
- Donor1_value [1]: 627
- Donor2_value [1]: 0
- Donor3_value [1]: 11
- Donor4_value [1]: 48

Sequence: LLQISNWFI
- Q1_Replacement_Percentage (HLA-A02:01): 32.7%
- Donor1_value [1]: 30
- Donor2_value [1]: 0
- Donor3_value [1]: 30
- Donor4_value [1]: 0

Sequence: LQILQDGQFLV
- Q1_Replacement_Percentage (HLA-A02:01): 81.9%
- Donor1_value [1]: 0
- Donor2_value [1]: 0
- Donor3_value [1]: 32
- Donor4_value [1]: 0

Sequence: LVLGTLEEV
- Q1_Replacement_Percentage (HLA-A02:01): 85.1%
- Donor1_value [1]: 666
- Donor2_value [1]: 17
- Donor3_value [1]: 15
- Donor4_value [1]: 11

Sequence: QILQDGQFLV
- Q1_Replacement_Percentage (HLA-A02:01): 94%
- Donor1_value [1]: 451
- Donor2_value [1]: 37
- Donor3_value [1]: 0
- Donor4_value [1]: 17

Sequence: RKLLMPLLGV
- Q1_Replacement_Percentage (HLA-A02:01): 22.9%
- Donor1_value [1]: 0
- Donor2_value [1]: 0
- Donor3_value [1]: 16
- Donor4_value [1]: 0

Sequence: RLELVFGL
- Q1_Replacement_Percentage (HLA-A02:01): 23.4%
- Donor1_value [1]: 0
- Donor2_value [1]: 0
- Donor3_value [1]: 8
- Donor4_value [1]: 0

Sequence: SLLDLYQLA
- Q1_Replacement_Percentage (HLA-A02:01): 91.5%
- Donor1_value [1]: 0
- Donor2_value [1]: 1
- Donor3_value [1]: 0
- Donor4_value [1]: 0

Sequence: VIWDVLSGI
- Q1_Replacement_Percentage (HLA-A02:01): 95.5%
- Donor1_value [1]: 678
- Donor2_value [1]: 0
- Donor3_value [1]: 0
- Donor4_value [1]: 1

Sequence: VLLPASLFI
- Q1_Replacement_Percentage (HLA-A02:01): 94.8%
- Donor1_value [1]: 634
- Donor2_value [1]: 26
- Donor3_value [1]: 0
- Donor4_value [1]: 0

Sequence: YIYDILLPV
- Q1_Replacement_Percentage (HLA-A02:01): 88.9%
- Donor1_value [1]: 17
- Donor2_value [1]: 54
- Donor3_value [1]: 19
- Donor4_value [1]: 0

Sequence: YLHEQVKTI
- Q1_Replacement_Percentage (HLA-A02:01): 83.5%
- Donor1_value [1]: 0
- Donor2_value [1]: 59
- Donor3_value [1]: 24
- Donor4_value [1]: 9

Sequence: YMLWFLLRHV
- Q1_Replacement_Percentage (HLA-A02:01): 32.4%
- Donor1_value [1]: 0
- Donor2_value [1]: 0
- Donor3_value [1]: 29
- Donor4_value [1]: 0

Sequence: YRLADHVGCV
- Q1_Replacement_Percentage (HLA-A02:01): 56.3%
- Donor1_value [1]: 0
- Donor2_value [1]: 30
- Donor3_value [1]: 9
- Donor4_value [1]: 0

Sequence: YTLDEKVAEL
- Q1_Replacement_Percentage (HLA-A02:01): 91.1%
- Donor1_value [1]: 640
- Donor2_value [1]: 29
- Donor3_value [1]: 2
- Donor4_value [1]: 0

Sequence: YVKVLEYVIKV
- Q1_Replacement_Percentage (HLA-A02:01): 14.7%
- Donor1_value [1]: 0
- Donor2_value [1]: 56
- Donor3_value [1]: 17
- Donor4_value [1]: 0
